Assay results reported in patent publication US9060971B2, “Combination pharmaceutical agents as inhibitors of HCV replication” (Enanta Pharmaceuticals, Inc., priority 2010, dated 2015).

System: HCV 1b genotype replicon
Assay: HCV replicon drug screening assay (quantitative RT-PCR or luciferase), genotype 1b
Format: cell-based
Conditions: Hepatitis C virus; HCV 1b genotype replicon; quantitative RT-PCR or luciferase assay; read-out: Genotype-1b replicon EC50 Range
From the text: HCV replicon cell lines (kindly provided by R. Bartenschlager) isolated from colonies as described by Lohman et. al. (Lohman et al. (1999) Science 285: 110-113, expressly incorporated by reference in its entirety) and used for all experiments. The HCV replicon has the nucleic acid sequence set forth in EMBL Accession No.: AJ242651, the coding sequence of which is from nucleotides 1801 to 8406.
The coding sequence of the published HCV replicon was synthesized and subsequently assembled in a modified plasmid pBR322 (Promega, Madison, Wis.) using standard molecular biology techniques. One replicon cell line (“SGR 11-7”) stably expresses HCV replicon RNA which consists of (i) the HCV 5′UTR fused to the first 12 amino acids of the capsid protein, (ii) the neomycin phosphotransferase gene (neo), (iii) the IRES from encephalomyocarditis virus (EMCV), and (iv) HCV NS2 to NS5B genes and the HCV 3′UTR. Another replicon cell line (“Huh-luc/neo-ET”) described by Vrolijk et. al. (Vrolijk et. al. (2003) Journal of Virological Methods 110:201-209, expressly incorporated by reference in its entirety) stably expresses HCV replicon RNA which consists of (i) the HCV 5′UTR fused to the first 12 amino acids of the capsid protein, (ii) the firefly luciferase reporter gene, (iii) the ubiquitin gene, (iv) the neomycin phosphotransferase gene (neo), (v) the IRES from encephalomyocarditis virus (EMCV), and (vi) HCV NS3 to NS5B genes that harbor cell culture adaptive mutations (E1202G, T12801, K1846T) and the HCV 3′UTR.
These cell lines are maintained at 37° C., 5% CO2, 100% relative humidity in DMEM (Cat#11965-084, Invitrogen), with 10% fetal calf serum (“FCS”, Invitrogen), 1% non-essential amino acids (Invitrogen), 1% of Glutamax (Invitrogen), 1% of 100× penicillin/streptomycin (Cat#15140-122, Invitrogen) and Geneticin (Cat#10131-027, Invitrogen) at 0.75 mg/ml or 0.5 mg/ml for 11-7 and Huh-luc/neo-ET cells, respectively.
EC50 values of single agent compounds and combinations were determined by HCV RNA detection using quantitative RT-PCR, according to the manufacturer's instructions, with a TAQMAN® One-Step RT-PCR Master Mix Reagents Kit (Cat#AB 4309169, Applied Biosystems) on an ABI Model 7500 thermocycler. The TaqMan primers to use for detecting and quantifying HCV RNA are 5′-GCTGCGGCCTGTCGAGCT-3′ (SEQ ID NO: 1), 5′-CAAGGTCGTCTCCGCATAC-3′ (SEQ ID NO: 2) and the probe 5′-FAM-[…]-BHQ-3′ (SEQ ID NO: 3) obtained from Integrated DNA Technologies. HCV RNA is normalized to GAPDH RNA levels in drug-treated cells, which is detected and quantified using the Human GAPDH Endogenous Control Mix (Applied Biosystems, AB 4310884E). Total cellular RNA is purified from 96-well plates using the RNAqueous 96 kit (Ambion, Cat#AM1812). Chemical agent cytotoxicity was evaluated using an MTS assay according to the manufacturer's directions (Promega).
The compounds described herein can be effective against the HCV 1b genotype. It should also be understood that the compounds can inhibit multiple genotypes of HCV. In one embodiment, compounds of Formula (I) are active against the 1a, 1b, 2a, 2b, 3a, 4a, and 5a genotypes. […] The EC50 ranges were classified into the following groups: A>10 nM; B 1-10 nM; C<1 nM. The potential cytotoxicities of each agent were analyzed in parallel by MTS assay and are greater than 3 uM for all agents.

SMILES: COC(=O)N[C@@H](C(=O)N1CCC[C@H]1c1ncc(-c2ccc(CCc3ccc4nc([C@@H]5CCCN5C(=O)[C@H](NC(=O)OC)c5ccccc5)[nH]c4c3)cc2)[nH]1)c1ccccc1 [Compound 37]
- EC50: < 1 nM

SMILES: COC(=O)N[C@@H](C(=O)N1CCC[C@H]1c1nc(-c2ccc(/C=C/c3ccc4[nH]c([C@@H]5CCCN5C(=O)[C@H](NC(=O)OC)c5ccccc5)nc4c3)cc2)c[nH]1)c1ccccc1 [Compound 38]
- EC50: < 1 nM

SMILES: COC(=O)N[C@@H](C(=O)N1CCC[C@H]1c1nc(-c2ccc(C#Cc3ccc4[nH]c([C@@H]5CCCN5C(=O)[C@H](NC(=O)OC)c5ccccc5)nc4c3)cc2)n[nH]1)c1ccccc1 [Compound 39]
- EC50: < 1 nM

SMILES: COC(=O)N[C@@H](C(=O)N1CCC[C@H]1c1nc(-c2ccc(CCc3ccc4[nH]c([C@@H]5CCCN5C(=O)[C@H](NC(=O)OC)c5ccccc5)nc4c3)cc2)n[nH]1)c1ccccc1 [Compound 40]
- EC50: < 1 nM

SMILES: COC(=O)N[C@@H](C(=O)N1CCC[C@H]1c1cc(-c2ccc(C#Cc3ccc4[nH]c([C@@H]5CCCN5C(=O)[C@H](NC(=O)OC)c5ccccc5)nc4c3)cc2)n[nH]1)c1ccccc1 [Compound 41]
- EC50: < 1 nM

SMILES: COC(=O)N[C@@H](C(=O)N1CCC[C@H]1c1cc(-c2ccc(CCc3ccc4[nH]c([C@@H]5CCCN5C(=O)[C@H](NC(=O)OC)c5ccccc5)nc4c3)cc2)n[nH]1)c1ccccc1 [Compound 42]
- EC50: < 1 nM

SMILES: COC(=O)N[C@H](C(=O)N1CCC[C@H]1c1ncc(-c2ccc(CCCc3ccc4[nH]c([C@@H]5CCCN5C(=O)[C@@H](NC(=O)OC)C(C)C)nc4c3)cc2)[nH]1)C(C)C [Compound 43]
- EC50: < 1 nM

SMILES: COC(=O)N[C@H](C(=O)N1CCC[C@H]1c1nc(-c2ccc(OCc3ccc4[nH]c([C@@H]5CCCN5C(=O)[C@@H](NC(=O)OC)C(C)C)nc4c3)cc2)c[nH]1)C(C)C [Compound 44]
- EC50: < 1 nM

SMILES: COC(=O)N[C@H](C(=O)N1CCC[C@H]1c1nc(-c2ccc(/C=C/c3ccc4[nH]c([C@@H]5CCCN5C(=O)[C@@H](NC(=O)OC)C(C)C)nc4c3)s2)c[nH]1)C(C)C [Compound 45]
- EC50: < 1 nM

SMILES: COC(=O)N[C@H](C(=O)N1CCC[C@H]1c1nc(-c2ccc(CCc3ccc4[nH]c([C@@H]5CCCN5C(=O)[C@@H](NC(=O)OC)C(C)C)nc4c3)s2)c[nH]1)C(C)C [Compound 46]
- EC50: < 1 nM

SMILES: COC(=O)N[C@H](C(=O)N1CCC[C@H]1c1nc(-c2ccc(CCCc3ccc4nc([C@@H]5CCCN5C(=O)[C@@H](NC(=O)OC)C(C)C)[nH]c4c3)s2)c[nH]1)C(C)C [Compound 47]
- EC50: < 1 nM

SMILES: COC(=O)N[C@H](C(=O)N1CCC[C@H]1c1nc(-c2ccc3cc(-c4ccc5[nH]c([C@@H]6CCCN6C(=O)[C@@H](NC(=O)OC)C(C)C)nc5c4)ccc3c2)c[nH]1)C(C)C [Compound 48]
- EC50: < 1 nM

SMILES: COC(=O)N[C@H](C(=O)N1CCC[C@H]1c1nc(-c2ccc3cc(-c4ccc5[nH]c([C@@H]6CCCN6C(=O)[C@@H](NC(=O)OC)[C@@H](C)OC)nc5c4)ccc3c2)c[nH]1)[C@@H](C)OC [Compound 49]
- EC50: < 1 nM

SMILES: COC(=O)N[C@H](C(=O)N1CCC[C@H]1c1nc(-c2ccc3cc(-c4ccc5[nH]c([C@@H]6CCCN6C(=O)[C@H](NC(=O)OC)c6ccccc6)nc5c4)ccc3c2)c[nH]1)[C@@H](C)OC [Compound 51]
- EC50: < 1 nM

SMILES: COC(=O)N[C@H](C(=O)N1CCC[C@H]1c1nc2cc(-c3ccc4cc(-c5c[nH]c([C@@H]6CCCN6C(=O)[C@@H](NC(=O)OC)[C@@H](C)OC)n5)ccc4c3)ccc2[nH]1)C(C)C [Compound 52]
- EC50: < 1 nM

SMILES: COC(=O)N[C@H](C(=O)N1CCC[C@H]1c1nc2cc(-c3ccc4cc(-c5c[nH]c([C@@H]6CCCN6C(=O)[C@@H](NC(=O)OC)[C@@H](C)OC)n5)ccc4c3)ccc2[nH]1)[C@@H](C)O [Compound 53]
- EC50: < 1 nM

SMILES: CC[C@H](C)[C@H](NC(=O)OC)C(=O)N1CCC[C@H]1c1nc2cc(-c3ccc4cc(-c5c[nH]c([C@@H]6CCCN6C(=O)[C@@H](NC(=O)OC)[C@@H](C)OC)n5)ccc4c3)ccc2[nH]1 [Compound 54]
- EC50: < 1 nM

SMILES: COC(=O)N[C@H](C(=O)N1CCC[C@H]1c1nc(C#Cc2ccc(-c3ccc4[nH]c([C@@H]5CCCN5C(=O)[C@@H](NC(=O)OC)C(C)C)nc4c3)cc2)c[nH]1)C(C)C [Compound 55]
- EC50: < 1 nM

SMILES: COC(=O)N[C@H](C(=O)N1CCC[C@H]1c1nc(CCc2ccc(-c3ccc4[nH]c([C@@H]5CCCN5C(=O)[C@@H](NC(=O)OC)C(C)C)nc4c3)cc2)c[nH]1)C(C)C [Compound 56]
- EC50: < 1 nM

SMILES: COC(=O)N[C@H](C(=O)N1CCC[C@H]1c1nc(C#Cc2ccc3cc(-c4ccc5[nH]c([C@@H]6CCCN6C(=O)[C@@H](NC(=O)OC)C(C)C)nc5c4)ccc3c2)c[nH]1)C(C)C [Compound 57]
- EC50: < 1 nM

SMILES: COC(=O)N[C@H](C(=O)N1CCC[C@H]1c1nc(CCc2ccc3cc(-c4ccc5[nH]c([C@@H]6CCCN6C(=O)[C@@H](NC(=O)OC)C(C)C)nc5c4)ccc3c2)c[nH]1)C(C)C [Compound 58]
- EC50: < 1 nM

SMILES: COC(=O)N[C@H](C(=O)N1CCC[C@H]1c1nc(-c2ccc(C#Cc3ccc4[nH]c([C@@H]5CCCN5C(=O)[C@@H](NC(=O)OC)[C@@H](C)OC)nc4c3)cc2)c[nH]1)[C@@H](C)OC [Compound 59]
- EC50: < 1 nM

SMILES: COC(=O)N[C@H](C(=O)N1CCC[C@H]1c1nc(-c2ccc3cc(C#Cc4ccc5[nH]c([C@@H]6CCCN6C(=O)[C@@H](NC(=O)OC)C(C)C)nc5c4)ccc3c2)c[nH]1)C(C)C [Compound 60]
- EC50: < 1 nM

SMILES: COC(=O)N[C@H](C(=O)N1CCC[C@H]1c1nc(-c2ccc3cc(/C=C/c4ccc5[nH]c([C@@H]6CCCN6C(=O)[C@@H](NC(=O)OC)C(C)C)nc5c4)ccc3c2)c[nH]1)C(C)C [Compound 61]
- EC50: < 1 nM

SMILES: COC(=O)N[C@H](C(=O)N1CCC[C@H]1c1nc(-c2ccc(C#Cc3ccc4[nH]c([C@@H]5CCCN5C(=O)[C@@H](OC(=O)OC)C(C)C)nc4c3)cc2)c[nH]1)C(C)C [Compound 62]
- EC50: < 1 nM

SMILES: CCOC(=O)N[C@H](C(=O)N1CCC[C@H]1c1nc2cc(C#Cc3ccc(-c4c[nH]c([C@@H]5CCCN5C(=O)[C@@H](NC(=O)OC)C(C)C)n4)cc3)ccc2[nH]1)C(C)C [Compound 63]
- EC50: < 1 nM

SMILES: COC(=O)N[C@H](C(=O)N1CCC[C@H]1c1nc(-c2ccc(C#Cc3cc(F)c4[nH]c([C@@H]5CCCN5C(=O)[C@@H](NC(=O)OC)C(C)C)nc4c3)cc2)c[nH]1)C(C)C [Compound 64]
- EC50: < 1 nM

SMILES: COC(=O)N[C@H](C(=O)N1CCC[C@H]1c1nc(-c2ccc(C#Cc3cc4nc([C@@H]5CCCN5C(=O)[C@@H](NC(=O)OC)C(C)C)[nH]c4cc3Cl)cc2)c[nH]1)C(C)C [Compound 65]
- EC50: < 1 nM

SMILES: COC(=O)N[C@H](C(=O)N1CCC[C@H]1c1nc(-c2ccc(C#Cc3ccc4[nH]c([C@@H]5CC(=O)CN5C(=O)[C@@H](NC(=O)OC)C(C)C)nc4c3)cc2)c[nH]1)C(C)C [Compound 66]
- EC50: < 1 nM

SMILES: [2H]c1c([2H])c(-c2c[nH]c([C@@H]3CCCN3C(=O)[C@@H](NC(=O)OC)C(C)C)n2)c([2H])c([2H])c1C#Cc1ccc2[nH]c([C@@H]3CCCN3C(=O)[C@@H](NC(=O)OC)C(C)C)nc2c1 [Compound 67]
- EC50: < 1 nM

SMILES: COC(=O)N[C@H](C(=O)N1CCC[C@H]1c1nc(-c2ccc3cc(-c4cc5nc([C@@H]6CCCN6C(=O)[C@@H](NC(=O)OC)C(C)C)[nH]c5cc4Cl)ccc3c2)c[nH]1)C(C)C [Compound 68]
- EC50: < 1 nM

SMILES: COC(=O)N[C@H](C(=O)N1CCC[C@H]1c1nc(-c2ccc(/C=C/c3ccc4[nH]c([C@@H]5CCCN5C(=O)[C@@H](NC(=O)OC)C(C)C)nc4c3)cc2)c[nH]1)C(C)C [Compound 69]
- EC50: < 1 nM

SMILES: C=C(c1ccc(-c2c[nH]c([C@@H]3CCCN3C(=O)[C@@H](NC(=O)OC)C(C)C)n2)cc1)c1ccc2nc([C@@H]3CCCN3C(=O)[C@@H](NC(=O)OC)C(C)C)[nH]c2c1 [Compound 70]
- EC50: < 1 nM
